Measurements taken from patent US20220168252A1, “RETINOID DERIVATIVES WITH ANTITUMOR ACTIVITY” (BIOGEM S.C. A R.L., priority 2016, published 2022).

Columns and labels:
[1] = tested on: Human NCI-H460 NSCLC; assay: Anti-proliferative activity, NCI-H460, 24 h exposure + 48 h recovery, SRB; assay type: cell-based; settings: 48 h recovery in drug-free medium, SRB (Table 1)
Experimental: Tumor cells were exposed for 24 h to new atypical retinoids (AR) and the anti-proliferative activity assessed upon 48 h recovery in drug-free medium with the SRB assay.

[2] = tested on: Human NCI-H460 NSCLC; assay: Anti-proliferative activity, NCI-H460, 72 h, SRB; assay type: cell-based; settings: Homo sapiens, NCI-H460
Experimental: (§1) The anti-proliferative activity of the POLA1/HDAC dual inhibitors MIR002 and GEM144 was assessed on various cell lines from solid and hematological cancers.
(§2) Human tumor cells were treated with POLA1/HDAC dual inhibitors and cell survival assessed upon 72 h with the SRB assay. HDAC=Histone Deacetylase. POLA1=DNA Polymerase Alpha 1. RI=Resistance Index.

[3] = tested on: Human Adarotene-resistant NCI-H460 (R9A) NSCLC; assay: Anti-proliferative activity, H460-R9A, 24 h + 48 h recovery, SRB; assay type: cell-based; settings: 24 h exposure, read-out: IC50 ± SD H460-R9A
Experimental: (§3) Tumor cells were exposed for 24 h to new atypical retinoids (AR) and the anti-proliferative activity assessed upon 48 h recovery in drug-free medium with the SRB assay. RI=Resistance Index (ratio between the IC50 values of resistant and sensitive cells).

[4] = tested on: MM487-Luc mesothelioma; assay: Anti-proliferative activity, MM487-Luc, 24 h + 48 h recovery, SRB; assay type: cell-based; settings: Homo sapiens, 24 h exposure, read-out: IC50 ± SD MM487-Luc
Experimental: as §3

[5] = tested on: U87MG glioblastoma cells; assay: Anti-proliferative activity, U87MG, 24 h + 48 h recovery, SRB; assay type: cell-based; settings: Homo sapiens, U-87 MG, 24 h exposure, read-out: IC50 ± SD U87MG
Experimental: as §3

[6] = tested on: parent A2780 ovarian cancer cell line; assay: Anti-proliferative activity, A2780, 24 h + 48 h recovery, SRB; assay type: cell-based; settings: Homo sapiens, 24 h exposure, read-out: IC50 ± SD A2780
Experimental: as §3

[7] = tested on: A2780-Dx multidrug-resistant ovarian cancer cell line; assay: Anti-proliferative activity, A2780-Dx, 24 h + 48 h recovery, SRB; assay type: cell-based, Human
Experimental: as §3
As described by Zuco V. et al in Neoplasia, 2005 July; 7(7):667-77, H460-R9A are about 70 fold resistant with respect to parental H460 to Adarotene. […] Ovarian cancer A2780 and its clone derivative A2780DX (Doxorubicin resistant) which overexpress P-glycoprotein (PGP), were used to evaluate the possibility of these new molecules to be absorbed at intestinal level. In fact, the overexpression of PGP, as well known, drastically reduces the possibility, after oral administration, of absorption of several chemotherapeutic agents (i.e. Paclitaxel, doxorubicin etc.). Since the IC50 of the tested compounds in A2780 and A2780DX, have similar values we conclude that they are not PGP substrates and they could be administrated to the patients via oral route.

[8] = tested on: Z-138 mantle cell lymphoma; assay: Anti-proliferative activity, Z-138, 24 h + 48 h recovery, MTT; assay type: cell-based; settings: Homo sapiens, 24 h exposure
Experimental: (§4) Tumor cells were exposed for 24 h to new atypical retinoids (AR) and the anti-proliferative activity assessed upon 48 h recovery in drug-free medium with the MTT assay.

[9] = tested on: NB4 (pro-myelocytic. leukemia); assay: Anti-proliferative activity, NB4, 24 h + 48 h recovery, MTT; assay type: cell-based; settings: Homo sapiens, 24 h exposure
Experimental: as §4

[10] = tested on: human Pleural Epithelioid Mesothelioma MM473; assay: Orthotopic mesothelioma model MM473 xenografted on nude mice; assay type: in vivo; settings: 50 mg/kg OS, bid, qdx5/wx4w
Experimental: (MM473-Luc) were re-suspended at the concentration of 1×10^6 cells/40 μl M199 medium., then orthotopically injected intrapeulically with infusion of […] (with Hamilton syringe).
Tumor growth was followed by biweekly measurements. […] Mice were weighed twice a week. […] Tumor growth was further followed by weekly BLI measurements. TGI was calculated as for the H460 trial.

[11] = tested on: ST1926-resistant H460 (H460-R9A) NSCLC; assay: Anti-proliferative activity, H460-R9A, 72 h, SRB; assay type: cell-based, human
Experimental: as §1, §2

[12] = tested on: parent A2780 ovarian carcinoma; assay: Anti-proliferative activity, A2780, 72 h, SRB; assay type: cell-based, human; settings: Homo sapiens, A2780, read-out: A2780 IC50 ± SD
Experimental: as §1, §2

[13] = tested on: multidrug-resistant A2780-Dx ovarian carcinoma; assay: Anti-proliferative activity, A2780-Dx, 72 h, SRB; assay type: cell-based, human; settings: 72 h
Experimental: as §1, §2

[14] = tested on: MM432-Luc mesothelioma; assay: Anti-proliferative activity, MM432-Luc, 72 h, SRB; assay type: cell-based; settings: Homo sapiens, read-out: MM432-Luc IC50 ± SD
Experimental: as §1
(§5) HDAC=Histone Deacetylase. POLA1=DNA Polymerase Alpha 1. N.e.=not evaluated.

[15] = tested on: MM473-Luc mesothelioma; assay: Anti-proliferative activity, MM473-Luc, 72 h, SRB; assay type: cell-based, Human; settings: Homo sapiens, read-out: MM473-Luc IC50 ± SD
Experimental: as §1, §5

[16] = tested on: MM487-Luc mesothelioma; assay: Anti-proliferative activity, MM487-Luc, 72 h, SRB; assay type: cell-based, Human; settings: Homo sapiens, read-out: MM487-Luc IC50 ± SD
Experimental: as §1, §5

[17] = tested on: MDA-MB231 (Breast); assay: Anti-proliferative activity, MDA-MB231, 72 h, SRB; assay type: cell-based; settings: Homo sapiens, MDA-MB-231, read-out: MDA-MB231 (Breast) IC50 ± SD
Experimental: as §1, §5

[18] = tested on: MDA-MB436 breast carcinoma; assay: Anti-proliferative activity, MDA-MB436, 72 h, SRB; assay type: cell-based; settings: Homo sapiens, MDA-MB-436, read-out: DA-MB436 (Breast) IC50 ± SD
Experimental: as §1, §5

[19] = tested on: U87MG-Luc glioma; assay: Anti-proliferative activity, U87MG-Luc, 72 h, SRB; assay type: cell-based; settings: Homo sapiens, read-out: 87MG-Luc (Glioma) IC50 ± SD
Experimental: as §1, §5

[20] = tested on: B16-Luc (Melanoma); assay: Anti-proliferative activity, B16-Luc, 72 h, SRB; assay type: cell-based, mouse; settings: Mus musculus, read-out: B16-Luc (Melanoma) IC50 ± SD
Experimental: as §1, §5

[21] = tested on: NB4 (leukemia); assay: Cell survival, NB4, 72 h, MTT; assay type: cell-based, Human; settings: Homo sapiens, read-out: NB4 (leukemia) IC50 ± SD
Experimental: as §1
(§6) Tumor cells were treated with POLA1/HDAC dual inhibitors and cell survival assessed upon 72 h with the MTT assay. HDAC=Histone Deacetylase. POLA1=DNA Polymerase Alpha 1.

[22] = tested on: THP-1 (leukemia); assay: Cell survival, THP-1, 72 h, MTT; assay type: cell-based, Human; settings: Homo sapiens, THP-1, read-out: THP-1 (leukemia) IC50 ± SD
Experimental: as §1, §6

[23] = tested on: U2932 (lymphoma); assay: Cell survival, U2932, 72 h, MTT; assay type: cell-based, Human; settings: Homo sapiens, U2932, read-out: U2932 (lymphoma) IC50 ± SD
Experimental: as §1, §6

[24] = tested on: Z138 (lymphoma); assay: Cell survival, Z138, 72 h, MTT; assay type: cell-based, Human; settings: Homo sapiens, Z-138, read-out: Z138 (lymphoma) IC50 ± SD
Experimental: as §1, §6

[25] = tested on: H460-R9A retinoid resistant cells; assay: H460-R9A lung cancer subcutaneous xenograft in mice; settings: Cisplatin 4 mg/kg IV q7dx4w, MIR002 50 mg/kg OS bid, qdx5/wx4w
Experimental: CD-1 nude and NOG mice, females, 4-5 weeks-old, were housed under specific-pathogen-free conditions in individually ventilated cages.
Cells were cultured in appropriated media and expanded in a 37° C. incubator with saturated humidity and an atmosphere of 95% air and 5% CO2, and were sub-cultured every 2-3 days. Before the injection in mice, cells were checked with MycoAlert® Mycoplasma Detection Kit (Lonza) to exclude mycoplasma contamination, counted by trypan blue dye exclusion, evaluated for cell viability (>95%).
H-460-R9A lung cancer cells were suspended at a concentration of 25×10^6/ml. 5×10^6 tumor cells were suspended in 0.2 ml of M199, then inoculated subcutaneously on the right flank of each animal.
MIR002 was dissolved to a concentration of 3.3 mg/mL in 10% DMSO, 5% ethanol, 20% Kolliphor® EL and 65% Na2CO3 10 mM pH 11 and administered by gavage; Cisplatin was dissolved to a concentration of 0.8 mg/mL in sterile saline solution and administered intravenously.
Four days after inoculation, tumor masses of H460-R9A were measured in length and width using a Mitutoyo caliper, mice were sorted basing on tumor volume (TV) and treatments were started. Tumor volume was calculated as follows: TV (mm3)=(Length (mm)×Width (mm)2)/2. Tumor growth was followed by biweekly measurements. Tumor Growth Inhibition (TGI) for each group was calculated as follows: TGI (%)=100−(mean TVtreated/mean TVcontrol×100). Mice were weighed twice a week.

- IC50 [1]: ≤ 500 nM
- IC50 ([2]; 72 h, SRB (Table 8), read-out: NCI-H460 IC50 ± SD): 250 ± 6 nM
- IC50 ([2]; chronically exposed 72 h, SRB (Table 2), read-out: IC50 ± SD): < 500 nM
- IC50 [3]: 2800 ± 300 nM
- IC50 [4]: 4500 ± 300 nM
- IC50 [5]: 1100 ± 300 nM
- IC50 [6]: 600 ± 10 nM
- RI (Resistance Index, ratio between the IC50 values of resistant and sensitive cells) ([7]; A2780-Dx vs A2780, 24 h exposure): 0.7
- IC50 ([7]; Homo sapiens, A2780/DX, 24 h exposure, SRB, read-out: IC50 ± SD A2780-Dx): 410 ± 5 nM
- IC50 [8]: 74 ± 20 nM
- IC50 [9]: 180 ± 40 nM
- BWL Day + 35 [10]: 0%
- IC50 ([11]; Homo sapiens, H460-R9A, SRB, read-out: H460-R9A IC50 ± SD): 2800 ± 50 nM
- IC50 [12]: 600 ± 10 nM
- IC50 ([13]; Homo sapiens, A2780/DX, SRB, read-out: A2780-Dx IC50 ± SD): 410 ± 5 nM
- IC50 [14]: 1500 ± 80 nM
- IC50 [15]: 1200 ± 60 nM
- IC50 [16]: 220 ± 20 nM
- IC50 [17]: 1900 ± 200 nM
- IC50 [18]: 640 ± 30 nM
- IC50 [19]: 1100 ± 300 nM
- IC50 [20]: 270 ± 20 nM
- BWL Day + 35 ([25]; Adarotene 15 mg/Kg OS q7dx5x4w): 0%
SMILES: O=C(O)/C=C/c1ccc(-c2ccc(OCC(=O)NO)c(C34CC5CC(CC(C5)C3)C4)c2)cc1 [Compound 8, 3-(3′-Adamantan-1-yl-4′-hydroxycarbamoylmethoxybiphenyl-4-yl)-acrylic acid]
- TGI Day + 35 [10]: 77%
- RI (Resistance Index) ([11]; H460-R9A vs NCI-H460): 11.2
- RI (Resistance Index) ([13]; A2780-Dx vs A2780): 0.7
- IC50 [21]: 180 ± 40 nM
- IC50 [22]: 420 ± 20 nM
- IC50 [23]: 520 ± 30 nM
- IC50 [24]: 38 ± 3 nM
- TGI Day + 35 ([25]; combination same doses): 38%
